Data as given in US12365696B2, “Small-molecule focal adhesion kinase (FAK) inhibitors” (DANA-FARBER CANCER INSTITUTE, INC., priority 2019, dated 2025).

Target: PTK2 (FAK) (Homo sapiens (Human), UniProt Q05397)
Experiment: Z′-LYTE kinase assay (SelectScreen Biochemical Kinase Profiling), enzymatic IC50
Conditions: for IC50: enzymatic, Z′-LYTE, read-out: FAK IC50
Experimental: Enzymatic IC50 data was obtained through ThermoFisher Scientific SelectScreen™ Biochemical Kinase Profiling Service, using a Z′-LYTE™ kinase-specific assay, as described below.
The test compounds were screened in 1% dimethyl sulfoxide (DMSO) (final) in the well. For 10 point titrations, 3-fold serial dilutions were conducted from the starting concentration.
All peptide/kinase mixtures were diluted to a 2× working concentration in the appropriate kinase buffer (see section kinase specific assay conditions for a complete description).
All ATP solutions were diluted to a 4× working concentration in kinase buffer (50 mM 4-(2-hydroxyethyl)-1-piperazineethanesulfonic acid (HEPES) pH 7.5, 0.01% BRIJ-35, 10 mM MgCl2, 1 mM ethylene glycol-bis(β-aminoethyl ether)-N,N,N′,N′-tetraacetic acid (EGTA)). ATP Km apparent was previously determined using a Z′-LYTE assay.
The development reagent was diluted in development buffer (see section kinase-specific assay conditions—direct and cascade for a complete description).
Using a bar-coded Corning, low volume NBS, black 384-well plate (Corning Cat. #4514), 100 nL of 100× test compound in 100% DMSO was added. […] The plate was then shaken for 30 seconds and held at room temperature for a 60 minute kinase reaction incubation period. At which point 5 μL of development reagent solution was added and the plate was shaken for 30 seconds. The plate was held again at room temperature for a 60 minute development reaction incubation period and then read on a fluorescence plate reader and analyzed.
The 2×PTK2 (FAK)/Tyr 07 mixture was prepared in 50 mM HEPES pH 7.5, 0.01% BRIJ-35, 10 mM MgCl2, 1 mM EGTA. […] After the 1 hour kinase reaction incubation period, 5 μL of a 1:16 dilution of development reagent B was added.
SelectScreen Kinase Profiling Service uses XLfit from ID Business Solutions (IDBS). The dose response curve was curve fit to model number 205 (sigmoidal dose-response model).

Chain of PTK2 (FAK) (Q05397 whole entry): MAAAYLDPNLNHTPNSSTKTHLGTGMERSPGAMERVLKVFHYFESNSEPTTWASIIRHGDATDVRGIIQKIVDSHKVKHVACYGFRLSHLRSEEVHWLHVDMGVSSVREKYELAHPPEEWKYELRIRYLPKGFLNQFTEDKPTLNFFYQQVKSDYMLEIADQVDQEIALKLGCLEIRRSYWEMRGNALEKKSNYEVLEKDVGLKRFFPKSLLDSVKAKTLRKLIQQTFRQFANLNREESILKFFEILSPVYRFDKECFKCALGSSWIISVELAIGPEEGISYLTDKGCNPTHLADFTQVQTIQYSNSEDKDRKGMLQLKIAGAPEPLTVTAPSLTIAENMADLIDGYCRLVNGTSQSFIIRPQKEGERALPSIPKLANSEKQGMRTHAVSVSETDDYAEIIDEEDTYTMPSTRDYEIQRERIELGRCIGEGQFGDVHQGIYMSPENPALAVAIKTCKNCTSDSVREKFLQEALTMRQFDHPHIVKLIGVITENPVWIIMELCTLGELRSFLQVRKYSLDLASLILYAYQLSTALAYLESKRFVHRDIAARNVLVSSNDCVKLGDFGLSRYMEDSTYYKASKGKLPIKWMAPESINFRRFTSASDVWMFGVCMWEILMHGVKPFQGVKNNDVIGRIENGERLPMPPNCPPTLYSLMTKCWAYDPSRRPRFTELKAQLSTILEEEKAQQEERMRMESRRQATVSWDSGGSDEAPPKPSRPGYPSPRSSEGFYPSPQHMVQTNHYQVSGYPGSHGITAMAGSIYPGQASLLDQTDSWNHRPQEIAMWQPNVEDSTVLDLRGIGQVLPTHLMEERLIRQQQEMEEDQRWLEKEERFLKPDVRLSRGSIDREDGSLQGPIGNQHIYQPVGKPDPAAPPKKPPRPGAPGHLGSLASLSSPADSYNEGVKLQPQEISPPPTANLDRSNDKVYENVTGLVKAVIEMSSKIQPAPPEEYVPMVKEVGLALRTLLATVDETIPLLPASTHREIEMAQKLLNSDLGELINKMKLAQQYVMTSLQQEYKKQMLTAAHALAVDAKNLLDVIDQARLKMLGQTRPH

Row | Structure (SMILES) | IC50 | FAK inhibitory activity (in words) (phenyl substituent at thiazole 2-position) | loss in potency relative to 3 (FAK IC50)
1 | COc1cc(N2CCN(C(C)=O)CC2)ccc1Nc1ncc2c(n1)N(C)c1sc(C)nc1C(=O)N2C [Compound 199, 6-((4-(4-acetylpiperazin-1-yl)-2-methoxyphenyl)amino)-2,4,9-trimethyl-4,9-dihydro-10H-pyrimido[5,4-b]thiazolo[5,4-e][1,4]diazepin-10-one] | 45.7 nM |  | 
2 | COc1cc(N2CCC(N3CCN(C)CC3)CC2)ccc1Nc1ncc2c(n1)N(C)c1sc(C(C)C)nc1C(=O)N2C [Compound 203, 2-isopropyl-6-((2-methoxy-4-(4-(4-methylpiperazin-1-yl)piperidin-1-yl)phenyl)amino)-4,9-dimethyl-4,9-dihydro-10H-pyrimido[5,4-b]thiazolo[5,4-e][1,4]diazepin-10-one] | 58.8 nM |  | 
3 | CCCOc1cc(N2CCN(C)CC2)ccc1Nc1ncc2c(n1)N(C)c1sc(C)nc1C(=O)N2C [Compound 202, 2,4,9-trimethyl-6-((4-(4-methylpiperazin-1-yl)-2-propoxyphenyl)amino)-4,9-dihydro-10H-pyrimido[5,4-b]thiazolo[5,4-e][1,4]diazepin-10-one] | 155 nM |  | 
4 | Cc1nc2c(s1)N(C)c1nc(Nc3ccc(N4CCN(C)CC4)cc3OCC(F)(F)F)ncc1N(C)C2=O [Compound 201, 2,4,9-trimethyl-6-((4-(4-methylpiperazin-1-yl)-2-(2,2,2-trifluoroethoxy)phenyl)amino)-4,9-dihydro-10H-pyrimido[5,4-b]thiazolo[5,4-e][1,4]diazepin-10-one] | 83.5 nM |  | 
5 | COc1cc(N2CCC(N3CCN(C)CC3)CC2)ccc1Nc1ncc2c(n1)N(CC(F)(F)F)c1sc(C)nc1C(=O)N2C [Compound 204, 6-((2-methoxy-4-(4-(4-methylpiperazin-1-yl)piperidin-1-yl)phenyl)amino)-2,9-dimethyl-4-(2,2,2-trifluoroethyl)-4,9-dihydro-10H-pyrimido[5,4-b]thiazolo[5,4-e][1,4]diazepin-10-one] | 68.3 nM |  | 
6 | C=CC(=O)N1CCN(c2ccc(Nc3ncc4c(n3)N(C)c3sc(C)nc3C(=O)N4C)c(OC)c2)CC1 [Compound 13, 6-((4-(4-acryloylpiperazin-1-yl)-2-methoxyphenyl)amino)-2,4,9-trimethyl-4,9-dihydro-10H-pyrimido[5,4-b]thiazolo[5,4-e][1,4]diazepin-10-one] | 53.6 nM |  | 
7 | CNC(=O)c1ccc(Nc2ncc3c(n2)N(C)c2sc(C)nc2C(=O)N3)cc1 [Compound 10, 4-((2,4-dimethyl-10-oxo-9,10-dihydro-4H-pyrimido[5,4-b]thiazolo[5,4-e][1,4]diazepin-6-yl)amino)-N-methylbenzamide] | 129 nM |  | 
8 | Cc1nc2c(s1)N(C)c1nc(Nc3ccc(N4CCN(C)CC4)cc3)ncc1NC2=O [Compound 1, 2,4-dimethyl-6-((4-(4-methylpiperazin-1-yl)phenyl)amino)-4,9-dihydro-10H-pyrimido[5,4-b]thiazolo[5,4-e][1,4]diazepin-10-one] | 228 nM |  | 
9 | CCCN1c2nc(Nc3ccc(N4CCC(N5CCN(C)CC5)CC4)cc3OC)ncc2N(C)C(=O)c2nc(C)sc21 [Compound 205, 6-((2-methoxy-4-(4-(4-methylpiperazin-1-yl)piperidin-1-yl)phenyl)amino)-2,9-dimethyl-4-propyl-4,9-dihydro-10H-pyrimido[5,4-b]thiazolo[5,4-e][1,4]diazepin-10-one] | 46.6 nM |  | 
10 | CCc1nc2c(s1)N(C)c1nc(Nc3ccc(N4CCC(N5CCN(C)CC5)CC4)cc3OC)ncc1N(C)C2=O [Compound 193, 2-ethyl-6-((2-methoxy-4-(4-(4-methylpiperazin-1-yl)piperidin-1-yl)phenyl)amino)-4,9-dimethyl-4,9-dihydro-10H-pyrimido[5,4-b]thiazolo[5,4-e][1,4]diazepin-10-one] | 31.7 nM |  | 
11 | COc1cc(Nc2ncc3c(n2)N(C)c2sc(C)nc2C(=O)N3)ccc1N1CCN(C)CC1 [Compound 4, 6-((3-methoxy-4-(4-methylpiperazin-1-yl)phenyl)amino)-2,4-dimethyl-4,9-dihydro-10H-pyrimido[5,4-b]thiazolo[5,4-e][1,4]diazepin-10-one] | 90.4 nM |  | 
12 | Cc1nc2c(s1)N(C)c1nc(Nc3ccc(N4CCN(C)CC4)cc3OCCO)ncc1N(C)C2=O [Compound 17, 6-((2-(2-hydroxyethoxy)-4-(4-methylpiperazin-1-yl)phenyl)amino)-2,4,9-trimethyl-4,9-dihydro-10H-pyrimido[5,4-b]thiazolo[5,4-e][1,4]diazepin-10-one] | 465 nM |  | 
13 | COc1cc(N2CCN(C)CC2=O)ccc1Nc1ncc2c(n1)N(C)c1sc(C)nc1C(=O)N2C [Compound 196, 6-((2-methoxy-4-(4-methyl-2-oxopiperazin-1-yl)phenyl)amino)-2,4,9-trimethyl-4,9-dihydro-10H-pyrimido[5,4-b]thiazolo[5,4-e][1,4]diazepin-10-one] | 82.4 nM |  | 
14 | COc1cc(N2CCN(CCN(C)C)CC2)ccc1Nc1ncc2c(n1)N(C)c1sc(C)nc1C(=O)N2C [Compound 200, 6-((4-(4-(2-(dimethylamino)ethyl)piperazin-1-yl)-2-methoxyphenyl)amino)-2,4,9-trimethyl-4,9-dihydro-10H-pyrimido[5,4-b]thiazolo[5,4-e][1,4]diazepin-10-one] | 67.2 nM |  | 
15 | CN1CCN(c2ccc(Nc3ncc4c(n3)N(C)c3sc(-c5ccccc5)nc3C(=O)N4C)cc2)CC1 [Compound 184, 4,9-dimethyl-6-((4-(4-methylpiperazin-1-yl)phenyl)amino)-2-phenyl-4,9-dihydro-10H-pyrimido[5,4-b]thiazolo[5,4-e][1,4]diazepin-10-one] | > 10000 nM | abrogated activity | 
16 | COc1cc(N2CCC(N3CCN(C)CC3)CC2)ccc1Nc1ncc2c(n1)N(C)c1scnc1C(=O)N2 [Compound 6, 6-((2-methoxy-4-(4-(4-methylpiperazin-1-yl)piperidin-1-yl)phenyl)amino)-4-methyl-4,9-dihydro-10H-pyrimido[5,4-b]thiazolo[5,4-e][1,4]diazepin-10-one] | 510 nM |  | 8 fold
17 | CCN1c2nc(Nc3ccc(N4CCC(N5CCN(C)CC5)CC4)cc3OC)ncc2NC(=O)c2nc(C)sc21 [Compound 9, 4-ethyl-6-((2-methoxy-4-(4-(4-methylpiperazin-1-yl)piperidin-1-yl)phenyl)amino)-2-methyl-4,9-dihydro-10H-pyrimido[5,4-b]thiazolo[5,4-e][1,4]diazepin-10-one] | 45.1 nM |  | 
18 | COc1cc(Nc2ncc3c(n2)N(C)c2sc(C)nc2C(=O)N3)ccc1N1CCC(N2CCN(C)CC2)CC1 [Compound 194, 6-((3-methoxy-4-(4-(4-methylpiperazin-1-yl)piperidin-1-yl)phenyl)amino)-2,4-dimethyl-4,9-dihydro-10H-pyrimido[5,4-b]thiazolo[5,4-e][1,4]diazepin-10-one] | 55.7 nM |  | 
19 | Cc1nc2c(s1)N(C)c1nc(Nc3ccc(N4CCN(C)CC4)cn3)ncc1N(C)C2=O [Compound 24, 2,4,9-trimethyl-6-((5-(4-methylpiperazin-1-yl)pyridin-2-yl)amino)-4,9-dihydro-10H-pyrimido[5,4-b]thiazolo[5,4-e][1,4]diazepin-10-one] | 196 nM |  | 
20 | CCc1nc2c(s1)N(C)c1nc(Nc3ccc(N4CCC(N5CCN(C)CC5)CC4)cc3OC)ncc1NC2=O [Compound 8, 2-ethyl-6-((2-methoxy-4-(4-(4-methylpiperazin-1-yl)piperidin-1-yl)phenyl)amino)-4-methyl-4,9-dihydro-10H-pyrimido[5,4-b]thiazolo[5,4-e][1,4]diazepin-10-one] | 32.1 nM |  | 
21 | COc1cc(N2CCC(N3CCN(C)CC3)CC2)ccc1Nc1ncc2c(n1)N(C)c1sc(-c3ccccc3)nc1C(=O)N2C [Compound 186, 6-((2-methoxy-4-(4-(4-methylpiperazin-1-yl)piperidin-1-yl)phenyl)amino)-4,9-dimethyl-2-phenyl-4,9-dihydro-10H-pyrimido[5,4-b]thiazolo[5,4-e][1,4]diazepin-10-one] | > 10000 nM |  | 
22 | COc1cc(N2CCN(C)CC2)ccc1Nc1ncc2c(n1)N(C)c1sc(C)nc1C(=O)N2 [Compound 7, 6-((2-methoxy-4-(4-methylpiperazin-1-yl)phenyl)amino)-2,4-dimethyl-4,9-dihydro-10H-pyrimido[5,4-b]thiazolo[5,4-e][1,4]diazepin-10-one] | 48.7 nM |  | 
23 | Cc1nc2c(s1)N(C)c1nc(Nc3cnn(C)c3)ncc1N(C)C2=O [Compound 26, 2,4,9-trimethyl-6-((1-methyl-1H-pyrazol-4-yl)amino)-4,9-dihydro-10H-pyrimido[5,4-b]thiazolo[5,4-e][1,4]diazepin-10-one] | 666 nM |  | 
24 | COc1cc(N2CCN(S(C)(=O)=O)CC2)ccc1Nc1ncc2c(n1)N(C)c1sc(C)nc1C(=O)N2 [Compound 11, 6-((2-methoxy-4-(4-(methylsulfonyl)piperazin-1-yl)phenyl)amino)-2,4-dimethyl-4,9-dihydro-10H-pyrimido[5,4-b]thiazolo[5,4-e][1,4]diazepin-10-one] | 17.6 nM |  | 
